In brackets after ≈: the same amount, converted by molar mass.
What was measured:
Experiment in all cases: minimum inhibitory concentration (ETEST)
Neisseria mucosa/macacae = test system: Neisseria mucosa/macacae
Method: (§1)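 Oropharyngeal Neisseria isolates from MSM and employees in Belgium were identified to species by MALDI-TOF MS. MICs of azithromycin, ceftriaxone and ciprofloxacin were determined by ETEST on GC agar after 24 h at 36.5 °C and 5-7% CO2, in mg/L. Values beyond the strip range are reported as >256 (azithromycin) or <0.016 (ceftriaxone); isolates that did not grow are NA.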

Neisseria meningitidis = test system: Neisseria meningitidis
Method: as §1

Neisseria lactamica = conditions: population: general population, antibiotic use in previous 6 months: No
Method: as §1

O=C(O)c1cn(C2CC2)c2cc(N3CCNCC3)c(F)cc2c1=O [ciprofloxacin]
Conditions	minimum inhibitory concentration [ng/mL]
Neisseria meningitidis, isolate id (sample isolate): 19040471_1, population: MSM, antibiotic use in previous 6 months: No	3 (≈ 0.00905 µM)
Neisseria meningitidis, isolate id (sample isolate): 19040855_1, population: MSM, antibiotic use in previous 6 months: No	4 (≈ 0.0121 µM)
Neisseria meningitidis, isolate id (sample isolate): 19040874_2, population: MSM, antibiotic use in previous 6 months: No	4 (≈ 0.0121 µM)
Neisseria meningitidis, isolate id (sample isolate): 19040900_2, population: MSM, antibiotic use in previous 6 months: No	4 (≈ 0.0121 µM)
Neisseria meningitidis, isolate id (sample isolate): 19042150_2, population: MSM, antibiotic use in previous 6 months: Yes	2 (≈ 0.00604 µM)
Neisseria meningitidis, isolate id (sample isolate): 19042756_3, population: MSM, antibiotic use in previous 6 months: Yes	8 (≈ 0.0241 µM)
Neisseria meningitidis, isolate id (sample isolate): 19043201_1, population: MSM, antibiotic use in previous 6 months: No	3 (≈ 0.00905 µM)
Neisseria meningitidis, isolate id (sample isolate): 19043201_2, population: MSM, antibiotic use in previous 6 months: No	3 (≈ 0.00905 µM)
Neisseria meningitidis, isolate id (sample isolate): 19043274_1, population: MSM, antibiotic use in previous 6 months: Yes	4 (≈ 0.0121 µM)
Neisseria meningitidis, isolate id (sample isolate): 19043274_2, population: MSM, antibiotic use in previous 6 months: Yes	4 (≈ 0.0121 µM)
Neisseria meningitidis, isolate id (sample isolate): 19051853_1, population: MSM, antibiotic use in previous 6 months: No	4 (≈ 0.0121 µM)
Neisseria meningitidis, isolate id (sample isolate): 19052394_3, population: MSM, antibiotic use in previous 6 months: Yes	2 (≈ 0.00604 µM)
Neisseria meningitidis, isolate id (sample isolate): 19052434_1, population: MSM, antibiotic use in previous 6 months: Yes	6 (≈ 0.0181 µM)
Neisseria meningitidis, isolate id (sample isolate): 19060069_1, population: MSM, antibiotic use in previous 6 months: Yes	6 (≈ 0.0181 µM)
Neisseria meningitidis, isolate id (sample isolate): 19060069_2, population: MSM, antibiotic use in previous 6 months: Yes	4 (≈ 0.0121 µM)
Neisseria meningitidis, isolate id (sample isolate): 19060089_2, population: MSM, antibiotic use in previous 6 months: Yes	2 (≈ 0.00604 µM)
Neisseria meningitidis, isolate id (sample isolate): 19061666_1, population: MSM, antibiotic use in previous 6 months: Yes	64 (≈ 0.193 µM)
Neisseria meningitidis, isolate id (sample isolate): 19062990_1, population: MSM, antibiotic use in previous 6 months: Yes	4 (≈ 0.0121 µM)
Neisseria meningitidis, isolate id (sample isolate): 19070019_2, population: MSM, antibiotic use in previous 6 months: No	3 (≈ 0.00905 µM)
Neisseria meningitidis, isolate id (sample isolate): 19070019_4, population: MSM, antibiotic use in previous 6 months: No	3 (≈ 0.00905 µM)
Neisseria meningitidis, isolate id (sample isolate): 19070047_1, population: MSM, antibiotic use in previous 6 months: No	6 (≈ 0.0181 µM)
Neisseria meningitidis, isolate id (sample isolate): 19082621_2, population: MSM, antibiotic use in previous 6 months: No	4 (≈ 0.0121 µM)
Neisseria meningitidis, isolate id (sample isolate): 19091461_1, population: MSM, antibiotic use in previous 6 months: No	8 (≈ 0.0241 µM)
Neisseria meningitidis, isolate id (sample isolate): 19091461_2, population: MSM, antibiotic use in previous 6 months: No	8 (≈ 0.0241 µM)
Neisseria meningitidis, isolate id (sample isolate): 19091973_1, population: MSM, antibiotic use in previous 6 months: No	3 (≈ 0.00905 µM)
Neisseria meningitidis, isolate id (sample isolate): 19092429_3, population: MSM, antibiotic use in previous 6 months: No	3 (≈ 0.00905 µM)
Neisseria meningitidis, isolate id (sample isolate): 19103457_1, population: MSM, antibiotic use in previous 6 months: No	3 (≈ 0.00905 µM)
Neisseria meningitidis, isolate id (sample isolate): 19103457_4, population: MSM, antibiotic use in previous 6 months: No	3 (≈ 0.00905 µM)
Neisseria meningitidis, isolate id (sample isolate): 19110394_1, population: MSM, antibiotic use in previous 6 months: No	3 (≈ 0.00905 µM)
Neisseria meningitidis, isolate id (sample isolate): 19113049_3, population: MSM, antibiotic use in previous 6 months: No	4 (≈ 0.0121 µM)
Neisseria meningitidis, isolate id (sample isolate): 19113049_6, population: MSM, antibiotic use in previous 6 months: No	3 (≈ 0.00905 µM)
Neisseria meningitidis, isolate id (sample isolate): Co000765_1, population: general population, antibiotic use in previous 6 months: No	4 (≈ 0.0121 µM)
Neisseria meningitidis, isolate id (sample isolate): Co000790_1, population: general population, antibiotic use in previous 6 months: No	125 (≈ 0.377 µM)
Neisseria meningitidis, isolate id (sample isolate): Co000790_3, population: general population, antibiotic use in previous 6 months: No	125 (≈ 0.377 µM)
Neisseria mucosa/macacae, isolate id (sample isolate): 19041762_2, population: MSM, antibiotic use in previous 6 months: Yes	16 (≈ 0.0483 µM)
Neisseria mucosa/macacae, isolate id (sample isolate): 19051904_1, population: MSM, antibiotic use in previous 6 months: Yes	250 (≈ 0.754 µM)
Neisseria mucosa/macacae, isolate id (sample isolate): 19052394_2, population: MSM, antibiotic use in previous 6 months: Yes	12 (≈ 0.0362 µM)
Neisseria mucosa/macacae, isolate id (sample isolate): 19062968_1, population: MSM, antibiotic use in previous 6 months: Yes	6000 (≈ 18.1 µM)
Neisseria mucosa/macacae, isolate id (sample isolate): 19081774_2, population: MSM, antibiotic use in previous 6 months: No	16 (≈ 0.0483 µM)
Neisseria mucosa/macacae, isolate id (sample isolate): 19111422_4, population: MSM, antibiotic use in previous 6 months: No	16 (≈ 0.0483 µM)
Neisseria mucosa/macacae, isolate id (sample isolate): 19111422_7, population: MSM, antibiotic use in previous 6 months: No	16 (≈ 0.0483 µM)
Neisseria mucosa/macacae, isolate id (sample isolate): Co000770_5, population: general population, antibiotic use in previous 6 months: No	23 (≈ 0.0694 µM)
Neisseria mucosa/macacae, isolate id (sample isolate): Co000771_4, population: general population, antibiotic use in previous 6 months: No	16 (≈ 0.0483 µM)
Neisseria mucosa/macacae, isolate id (sample isolate): Co000772_3, population: general population, antibiotic use in previous 6 months: No	6 (≈ 0.0181 µM)
Neisseria mucosa/macacae, isolate id (sample isolate): Co000773_3, population: general population, antibiotic use in previous 6 months: No	6 (≈ 0.0181 µM)
Neisseria mucosa/macacae, isolate id (sample isolate): Co000779_1, population: general population, antibiotic use in previous 6 months: No	32 (≈ 0.0966 µM)
Neisseria mucosa/macacae, isolate id (sample isolate): Co000783_3, population: general population, antibiotic use in previous 6 months: No	12 (≈ 0.0362 µM)
Neisseria mucosa/macacae, isolate id (sample isolate): Co000783_6, population: general population, antibiotic use in previous 6 months: No	23 (≈ 0.0694 µM)
Neisseria mucosa/macacae, isolate id (sample isolate): Co000787_3, population: general population, antibiotic use in previous 6 months: No	64 (≈ 0.193 µM)
Neisseria mucosa/macacae, isolate id (sample isolate): Co000788_1, population: general population, antibiotic use in previous 6 months: No	12 (≈ 0.0362 µM)
Neisseria mucosa/macacae, isolate id (sample isolate): Co000788_4, population: general population, antibiotic use in previous 6 months: No	12 (≈ 0.0362 µM)

Neisseria lactamica
Conditions	minimum inhibitory concentration [ng/mL]
isolate id (sample isolate): Co000761_1	190 (≈ 0.573 µM)
isolate id (sample isolate): Co000771_1	64 (≈ 0.193 µM)
